Reference: US6342526B1, “Method for enhancing or achieving training-induced bradycardia with Carnitine” (Lonza Ltd., priority 2000, dated 2002)

How the values were obtained:
[1] = tested on: rats; test: Training-induced bradycardia in rats; assay type: in vivo, rat
[2] = tested on: swine; test: Training-induced bradycardia in swine; assay type: in vivo
[3] = tested on: horses; test: Plasma glucose and blood lactate during standardised exercise test (SET); assay type: in vivo, horse; conditions: 10 g LC/d
[4] = tested on: horses; test: Heart rate during treadmill exercise training with oral L-carnitine supplementation; assay type: in vivo, horse
[5] = LC concentration in M. glutaeus med. muscle biopsies; assay type: in vivo, horse; conditions: horses
From the text: LC was obtained as commercially available free L-carnitine (Carniking® from Lonza Ltd.). After a first standardised exercise test (SET) during the whole experiment period (5 weeks training, 15 weeks detraining) a group of 4 Trotters received 10 g of LC/d offered with concentrate in two feed portions daily, as essentially described in example 1, while a group of 4 Trotters served as non-supplemented controls. All horses were two years old and were descendants from 1 stallion. The treadmill training program consisted of 8 aerobic, static exercise sessions (15 min warmup, 60 min exercise at an intensity level which maintained a blood lactate concentration of 2.0 mmol/l (VLA 2.0)) and 8 anaerobic exercise sessions (15 min, warm up, followed by 15 steps of graded exercise intensities of 1 min duration each, starting at VLA 4.0). During the dynamic exercises running speed was incremented every minute by 0.3 m/s and ranged from about of 5 m/s to 14 m/s. […]
Muscle biopsies from M. glutaeus med. and venous blood samples were collected at the beginning (1st SET) and the end of training (2nd SET) and at the beginning and the end of the 1st (beginning of training) and 8th (end of training) static and dynamic exercise and after 5 and 10 weeks of detraining. […] Heart rates were continuously monitored during exercises with a polar horse tester.

In the case of `C[N+](C)(C)C[C@H](O)CC(=O)[O-]` [L-carnitine], the “Enhancement of training-induced bradycardia” value [1] is reported as “enhancement of training-induced bradycardia was equally achieved”, the “Enhancement of training-induced bradycardia” value [2] is reported as “enhancement of training-induced bradycardia was equally achieved” and the “Exercise-induced increase of blood lactate” value ([3]; FIG. 1) is reported as “lower”. The “Concentration of glucose in plasma during exercise, second SET versus first SET” value ([3]; end of 5 weeks training) was “lower concentrations of glucose in plasma during exercise”, the “Heart rate at end of incremented, high intensity (anaerobic) exercise, post-training” value ([4]; N=4, 10 g LC/d, end of 15 steps of +0.3 m/s, after 5 weeks training, mean) was 196 beats/min and the “Heart rate at end of incremented, high intensity (anaerobic) exercise, pre-training” value ([4]; N=4, 10 g LC/d, end of 15 steps of +0.3 m/s, pre-training, mean) was 209 beats/min. For the same molecule, the “Heart rate at start of incremented, high intensity (anaerobic) exercise, post-training” value ([4]; N=4, 10 g LC/d, start at VLA 4.0, after 5 weeks training, mean) was 143 beats/min, the “Heart rate at start of incremented, high intensity (anaerobic) exercise, pre-training” value ([4]; N=4, 10 g LC/d, start at VLA 4.0, pre-training, mean) was 150 beats/min and the “Decline of post-training heart rate at equivalent work loads versus start of training” value ([4]; SET, 10 g LC/d for 5 weeks training, FIG. 2) was 7 beats/minute. For the same molecule, the “Change in heart rate at increasing exercise work loads, end versus start of training” value ([4]; SET, treadmill speeds 5 to 9 m/s, 10 g LC/d, 5 weeks) was “significant (p<0.001) reduction in heart rate”, the “Heart rate during moderate intensity (aerobic) exercise, post-training” value ([4]; Trotters N=4, 10 g LC/d oral, 60 min treadmill at VLA 2.0, after 5 weeks training, mean ± SD) was 122 ± 6 beats/min and the “Heart rate during moderate intensity (aerobic) exercise, pre-training” value ([4]; Trotters N=4, 10 g LC/d oral, 60 min treadmill at VLA 2.0, pre-training, mean ± SD) was 130 ± 7 beats/min. The “Elevation of LC concentration in M. glutaeus med.” value ([5]; 10 g LC/d oral, five weeks of supplementation) was “about 50%” and the “LC concentration in the muscle during detraining period” value ([5]; 10 g LC/d, whole detraining period) was “remained at this high level”.
